SMILES strings stand for the structures. pIC50: −log10 of the molar value.

This assay concerns the target LSD-1 enzyme (Homo sapiens (Human), UniProt O60341). Briefly: LANCE LSD1/KDM1A demethylase assay (LSD1 histone demethylase biochemical assay). Conditions: 1 nM LSD-1 enzyme, 1 hour preincubation at 25° C., Biotin-labeled Histone H3 peptide substrate. (Time-resolved FRET reads energy transfer from a long-lived donor to a nearby acceptor.)
As for `CN(C)C1CCN(c2nc(-c3ccc(C#N)cc3)c(-c3ccc(N(C)S(C)(=O)=O)nc3)c3nccn23)CC1` [Example 115, N-(5-{7-(4-cyanophenyl)-5-[4-(dimethylamino)piperidin-1-yl]imidazo[1,2-c]pyrimidin-8-yl}pyridin-2-yl)-N-methylmethanesulfonamide], the pIC50 – broadly, −log10 of the IC50, conventionally taken in molar units – is no less than 7.30.
The result for `CCOc1ccc(-c2c(-c3ccc(C#N)cc3)nc(N3CCC(N(C)C)CC3)n3ccnc23)cn1` [Example 117, 4-[5-[4-(dimethylamino)piperidin-1-yl]-8-(6-ethoxypyridin-3-yl)imidazo[1,2-c]pyrimidin-7-yl]benzonitrile] reads no less than 7.30; that for `CC(C)c1ccc(-c2c(-c3ccc(C#N)cc3)nc(N3CCC(N(C)C)CC3)n3ccnc23)cn1` [Example 118, 4-[5-[4-(dimethylamino)piperidin-1-yl]-8-(6-isopropylpyridin-3-yl)imidazo[1,2-c]pyrimidin-7-yl]benzonitrile], 6.30 to 7.30; that for `CCN1CCC[C@@H](COc2nc(-c3ccc(C#N)cc3)c(-c3ccc(C)cc3CO)c3nccn23)C1` [Example 119, 4-{5-{[(3R)-1-ethylpiperidin-3-yl]methoxy}-8-[2-(hydroxymethyl)-4-methylphenyl]imidazo[1,2-c]pyrimidin-7-yl}benzonitrile], 6.30 to 7.30.
For the compound `CN(C)C1CCN(c2nc(-c3ccc(C#N)cc3)c(-c3ccc4scnc4c3)c3nccn23)CC1` [Example 120, 4-{8-(1,3-benzothiazol-5-yl)-5-[4-(dimethylamino)piperidin-1-yl]imidazo[1,2-c]pyrimidin-7-yl}benzonitrile], the pIC50 is no less than 7.30.
Under `CN(C)C1CCN(c2nc(-c3ccc(C#N)cc3)c(-c3ccc4c(c3)C(O)CC4)c3nccn23)CC1` (centres unmarked) [Example 121, 4-[5-[4-(dimethylamino)piperidin-1-yl]-8-(3-hydroxy-2,3-dihydro-1H-inden-5-yl)imidazo[1,2-c]pyrimidin-7-yl]benzonitrile] stands no less than 7.30.
Under `CN(C)C1CCN(c2nc(-c3ccc(C#N)cc3)c(-c3ccc4c(c3)CC(O)C4)c3nccn23)CC1` (centres unmarked) [Example 122, 4-[5-[4-(dimethylamino)piperidin-1-yl]-8-(2-hydroxy-2,3-dihydro-1H-inden-5-yl)imidazo[1,2-c]pyrimidin-7-yl]benzonitrile] stands no less than 7.30; under `CN1CCC[C@@H](COc2nc(-c3ccc(C#N)cc3)c(-c3ccc4c(c3)C(O)CC4)c3nccn23)C1` (stereo partly drawn) [Example 123, 4-(8-(3-hydroxy-2,3-dihydro-1H-inden-5-yl)-5-{[(3R)-1-methylpiperidin-3-yl]methoxy}imidazo[1,2-c]pyrimidin-7-yl)benzonitrile], no less than 7.30.
On to `CN1CCC[C@@H](COc2nc(-c3ccc(C#N)cc3)c(-c3ccc4c(c3)CC(O)C4)c3nccn23)C1` (stereo partly drawn) [Example 124, 4-(8-(2-hydroxy-2,3-dihydro-1H-inden-5-yl)-5-{[(3R)-1-methylpiperidin-3-yl]methoxy}imidazo[1,2-c]pyrimidin-7-yl)benzonitrile], for which the pIC50 is no less than 7.30.
`CN(C)C1CCN(c2nc(-c3ccc(C#N)cc3)c(-c3cnc4c(ccn4C)c3)c3nccn23)CC1` [Example 125, 4-[5-[4-(dimethylamino)piperidin-1-yl]-8-(1-methyl-1H-pyrrolo[2,3-b]pyridin-5-yl)imidazo[1,2-c]pyrimidin-7-yl]benzonitrile] gave a pIC50 of no less than 7.30.
With `CN(C)C1CCN(c2nc(-c3ccc(C#N)cc3)c(-c3ccc4nccnc4c3)c3nccn23)CC1` [Example 126, 4-{5-[4-(dimethylamino)piperidin-1-yl]-8-quinoxalin-6-ylimidazo[1,2-c]pyrimidin-7-yl}benzonitrile], the pIC50 is 6.30 to 7.30.
In turn, `CN(C)C1CCN(c2nc(-c3ccc(C#N)cc3)c(-c3ccc4c(c3F)n(C)c(=O)n4C)c3nccn23)CC1` [Example 127, 4-[5-[4-(dimethylamino)piperidin-1-yl]-8-(4-fluoro-1,3-dimethyl-2-oxo-2,3-dihydro-1H-benzimidazol-5-yl)imidazo[1,2-c]pyrimidin-7-yl]benzonitrile] gave a pIC50 of no less than 7.30.
Take `CN(C)C1CCN(c2nc(-c3ccc(C#N)cc3)c(-c3cc(F)c4c(c3)n(C)c(=O)n4C)c3nccn23)CC1` [Example 128, 4-[5-[4-(dimethylamino)piperidin-1-yl]-8-(7-fluoro-1,3-dimethyl-2-oxo-2,3-dihydro-1H-benzimidazol-5-yl)imidazo[1,2-c]pyrimidin-7-yl]benzonitrile]: the pIC50 was no less than 7.30.
The result for `CN(C)C1CCN(c2nc(-c3ccc(C#N)cc3)c(-c3cc4c(cc3F)n(C)c(=O)n4C)c3nccn23)CC1` [Example 129, 4-[5-[4-(dimethylamino)piperidin-1-yl]-8-(6-fluoro-1,3-dimethyl-2-oxo-2,3-dihydro-1H-benzimidazol-5-yl)imidazo[1,2-c]pyrimidin-7-yl]benzonitrile] reads no less than 7.30; that for `CN1C(=O)CCc2cc(-c3c(-c4ccc(C#N)cc4)nc(N4CCC(N(C)C)CC4)n4ccnc34)ccc21` [Example 130, 4-[5-[4-(dimethylamino)piperidin-1-yl]-8-(1-methyl-2-oxo-1,2,3,4-tetrahydroquinolin-6-yl)imidazo[1,2-c]pyrimidin-7-yl]benzonitrile], no less than 7.30.
`CN1C(=O)CCc2ccc(-c3c(-c4ccc(C#N)cc4)nc(N4CCC(N(C)C)CC4)n4ccnc34)cc21` [Example 131, 4-[5-[4-(dimethylamino)piperidin-1-yl]-8-(1-methyl-2-oxo-1,2,3,4-tetrahydroquinolin-7-yl)imidazo[1,2-c]pyrimidin-7-yl]benzonitrile]: the pIC50 is 6.30 to 7.30.
Under `Cc1ncc(-c2c(-c3ccc(C#N)cc3)nc(N3CCC(N(C)C)CC3)n3ccnc23)cc1C(F)F` [Example 132, 4-{8-[5-(difluoromethyl)-6-methylpyridin-3-yl]-5-[4-(dimethylamino)piperidin-1-yl]imidazo[1,2-c]pyrimidin-7-yl}benzonitrile] stands 6.30 to 7.30; under `C[C@@H](O)CN1CCC[C@@H](COc2nc(-c3ccc(C#N)cc3)c(-c3ccc4c(c3)oc(=O)n4C)c3nccn23)C1` [Example 133, 4-[5-({(3R)-1-[(2R)-2-hydroxypropyl]piperidin-3-yl}methoxy)-8-(3-methyl-2-oxo-2,3-dihydro-1,3-benzoxazol-6-yl)imidazo[1,2-c]pyrimidin-7-yl]benzonitrile], 6.30 to 7.30; under `C[C@H](O)CN1CCC[C@@H](COc2nc(-c3ccc(C#N)cc3)c(-c3ccc4c(c3)oc(=O)n4C)c3nccn23)C1` [Example 134, 4-[5-({(3R)-1-[(2S)-2-hydroxypropyl]piperidin-3-yl}methoxy)-8-(3-methyl-2-oxo-2,3-dihydro-1,3-benzoxazol-6-yl)imidazo[1,2-c]pyrimidin-7-yl]benzonitrile], no less than 7.30.
The result for `Cn1c(=O)oc2cc(-c3c(-c4ccc(C#N)cc4)nc(OC[C@@H]4CCCN(CC(C)(C)O)C4)n4ccnc34)ccc21` [Example 135, 4-[5-{[(3R)-1-(2-hydroxy-2-methylpropyl)piperidin-3-yl]methoxy}-8-(3-methyl-2-oxo-2,3-dihydro-1,3-benzoxazol-6-yl)imidazo[1,2-c]pyrimidin-7-yl]benzonitrile] reads 6.30 to 7.30.
